Experimental data reported in US20240279195A1, “SOLID STATE FORMS OF ABEXINOSTAT AND PROCESS FOR PREPARATION THEREOF” (TEVA PHARMACEUTICALS INTERNATIONAL GMBH, priority 2021, published 2024).

assay: solid state stability of the crystalline form upon heating, pressure, grinding and exposure to humidity; type: physicochemical

Substance | stability of the crystalline form
Abexinostat tosylate [Form T1] | stable
Abexinostat fumarate [Form F3] | stable
Abexinostat maleate [Form M1] | stable
